Source: patent US10961215B2, “N-aryl and N-heteroaryl piperidine derivatives as liver X receptor beta agonists, compositions, and their use” (Merck Sharp & Dohme Corp., priority 2016, dated 2021)

Assays:
[1] = target: T1, GST tagged LXRbeta LBD (ligand binding domain) (Homo sapiens, UniProt P55055); test: LanthaScreen TR-FRET Liver X Receptor Coactivator Assay, LXR beta-LBD (co-activator recruitment; IP and % Emax relative to T0901317); type: biochemical; settings: for EC50: Inflection Point of co-activator recruitment, LXR beta-LBD, TR-FRET; for Emax: efficacy at max dose in relation to reference T0901317, LXR beta-LBD, read-out: LXR beta actiivty at max dose (%)
T1 construct: purchased Invitrogen pv4658.pps
T1 sequence (P55055 222-460 limits assumed): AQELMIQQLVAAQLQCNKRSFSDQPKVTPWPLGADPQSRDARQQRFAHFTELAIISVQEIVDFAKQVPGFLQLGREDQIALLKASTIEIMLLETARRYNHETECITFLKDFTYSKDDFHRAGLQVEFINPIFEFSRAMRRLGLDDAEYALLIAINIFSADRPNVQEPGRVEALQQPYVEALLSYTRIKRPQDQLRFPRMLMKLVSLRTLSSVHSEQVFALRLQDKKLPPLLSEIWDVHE
Summary of the method: (§1)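 Agonist-induced recruitment of a fluorescein-tagged coactivator peptide to the LBD is detected via terbium anti-GST TR-FRET.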

[2] = target: T2, GST tagged LXRalpha LBD (ligand binding domain) (Homo sapiens, UniProt Q13133); test: LanthaScreen TR-FRET Liver X Receptor Coactivator Assay, LXR alpha-LBD (co-activator recruitment; IP and % Emax relative to T0901317); type: biochemical; settings: for Emax: efficacy at max dose in relation to reference T0901317, LXR alpha-LBD, read-out: LXR alpha actiivty at max dose (%)
T2 construct: purchased Invitrogen pv4655
T2 sequence (Q13133 209-447 limits assumed): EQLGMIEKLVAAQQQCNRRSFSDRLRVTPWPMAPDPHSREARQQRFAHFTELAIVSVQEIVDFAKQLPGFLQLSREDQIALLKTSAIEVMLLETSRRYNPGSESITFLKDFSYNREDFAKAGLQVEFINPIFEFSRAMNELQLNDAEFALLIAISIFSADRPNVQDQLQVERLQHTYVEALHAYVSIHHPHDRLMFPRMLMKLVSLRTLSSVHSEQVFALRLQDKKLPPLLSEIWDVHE
Summary of the method: as §1

[3] = Inflection Point of co-activator recruitment, LXR alpha-LBD, TR-FRET

| SMILES | EC50 [1] [nM] | Emax [1] [%] | LXR alpha IP (nM) [2, 3] | Emax [2] [%] | EC50 [2, 3] [µM] |
| --- | --- | --- | --- | --- | --- |
| CN(C)C(=O)c1ccc(N2CCC3(CC2)CC3CCCNC(=O)[C@](O)(c2ccccc2)C(F)(F)F)cc1Cl (stereo partly drawn) [Example 7-35, 2-chloro-N,N-dimethyl-4-(1-(3-((R)-3,3,3-trifluoro-2-hydroxy-2-phenylpropanamido)propyl)-6-azaspiro[2.5]octan-6-yl)benzamide] | 435 | 46 | No IP | 0 | – |
| CN(C)C(=O)c1ccc(N2CCC(CCCN(C)C(=O)[C@](C)(O)c3ccccc3)CC2)nc1Cl [Example 1-20, (R)-2-chloro-6-(4-(3-(2-hydroxy-N-methyl-2-phenylpropanamido)propyl)piperidin-1-yl)-N,N-dimethylnicotinamide] | 508 | 32 | No IP | 6 | – |
| CN(C)C(=O)c1ccc(N2CCC(CCCNC(=O)C(O)(c3ccccc3)C(F)(F)F)CC2)cc1Cl (centres unmarked) [Example 5-1, 2-chloro-N,N-dimethyl-4-(4-(3-(3,3,3-trifluoro-2-hydroxy-2-phenylpropanamido)propyl)piperidin-1-yl)benzamide] | 610 | 95 | – | 14 | 3.51 |
| CNC(=O)c1ccc(N2CCC3(CC2)C[C@H]3CCN(C)C(=O)[C@](O)(c2ccccc2)C(F)(F)F)cc1Cl [Example 7-24, 2-chloro-N-methyl-4-((S)-1-(2-((R)-3,3,3-trifluoro-2-hydroxy-N-methyl-2-phenylpropanamido)ethyl)-6-azaspiro[2.5]octan-6-yl)benzamide] | 1410 | 37 | No IP | 16 | – |
| CN(C)C(=O)c1ccc(N2CCC(CCCN(C)C(=O)[C@@]3(c4ccccc4F)CCCO3)CC2)nc1Cl [Example 1-5, (S)-2-chloro-6-(4-(3-(2-(2-fluorophenyl)-N-methyl-tetrahydrofuran-2-carboxamido)propyl)piperidin-1-yl)-N,N-dimethylnicotinamide] | 55 | 82 | No IP | 6 | – |
| COc1cccc(C2(C(=O)N(C)CCCC3CCN(c4ccc(C(=O)N(C)C)c(Cl)n4)CC3)CCOCC2)c1 [Example 1-44, 2-chloro-6-(4-(3-(4-(3-methoxyphenyl)-N-methyltetrahydro-2H-pyran-4-carboxamido)propyl)piperidin-1-yl)-N,N-dimethylnicotinamide] | 822 | 39 | No IP | 0 | – |
| CN(C)C(=O)c1ccc(N2CCC(CCCNC(=O)OCc3ccccc3)CC2)nc1Cl [Example 5-5, benzyl 3-(1-(6-chloro-5-(dimethylcarbamoyl)pyridin-2-yl)piperidin-4-yl)propyl-carbamate] | 1510 | 39 | No IP | 0 | – |
| COc1cccc([C@@](O)(C(=O)N(C)CCCC2CCN(c3ccc(C(=O)N(C)C4CC4)c(Cl)n3)CC2)C(F)(F)F)c1 [Example 2-3, (R)-2-chloro-N-cyclopropyl-N-methyl-6-(4-(3-(3,3,3-trifluoro-2-hydroxy-2-(3-methoxyphenyl)-N-methylpropanamido)propyl)piperidin-1-yl)nicotinamide] | 107 | 42 | No IP | 0 | – |
